Tests used:
[1] = target: T1, PDK1 (Homo sapiens, UniProt O15530); test: PDK1 thermal denaturation; conditions: data not shown
T1 sequence (O15530 1-556): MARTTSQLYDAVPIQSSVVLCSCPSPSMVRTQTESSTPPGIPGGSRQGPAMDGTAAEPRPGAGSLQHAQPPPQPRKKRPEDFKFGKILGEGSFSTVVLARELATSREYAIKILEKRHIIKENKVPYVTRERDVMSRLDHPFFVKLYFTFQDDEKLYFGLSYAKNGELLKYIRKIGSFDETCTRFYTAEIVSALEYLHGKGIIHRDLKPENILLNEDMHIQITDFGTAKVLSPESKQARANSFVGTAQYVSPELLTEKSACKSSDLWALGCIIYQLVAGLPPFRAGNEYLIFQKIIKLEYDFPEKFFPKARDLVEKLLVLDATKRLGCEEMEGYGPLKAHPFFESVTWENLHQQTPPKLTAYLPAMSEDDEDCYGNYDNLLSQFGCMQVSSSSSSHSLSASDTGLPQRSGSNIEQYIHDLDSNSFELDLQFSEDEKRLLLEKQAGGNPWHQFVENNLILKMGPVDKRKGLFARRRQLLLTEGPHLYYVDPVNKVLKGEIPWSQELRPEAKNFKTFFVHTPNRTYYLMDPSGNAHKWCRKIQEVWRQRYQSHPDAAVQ

[2] = target: T2, PDK1 50-360 (Homo sapiens, UniProt O15530); test: Isothermal Titration Calorimetry; assay type: binding; conditions: ITC
T2 construct: the catalytic domain of PDK1 (50-359) produced in SF9 insect cells; His-tag (pFastbac-HT, TEV site) (N, cleaved yes); made in house; host or cells: Sf9 insect cells (baculovirus, pFastbac-HT)
T2 sequence (O15530 50-359): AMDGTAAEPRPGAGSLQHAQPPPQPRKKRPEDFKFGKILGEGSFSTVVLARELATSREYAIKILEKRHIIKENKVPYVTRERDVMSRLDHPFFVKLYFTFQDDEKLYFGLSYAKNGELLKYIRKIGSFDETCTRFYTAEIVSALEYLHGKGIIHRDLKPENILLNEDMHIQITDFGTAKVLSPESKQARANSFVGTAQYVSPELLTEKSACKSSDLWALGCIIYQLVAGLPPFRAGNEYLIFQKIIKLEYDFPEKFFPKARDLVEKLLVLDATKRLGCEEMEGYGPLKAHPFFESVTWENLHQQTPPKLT
Experimental: FIG. 8—Characterization of compound 1 interaction with PDK1 50-360 by Isothermal Titration Calorimetry (ITC). Upper panel, raw data of the titration of compound 1 into PDK1 50-360. Lower panel, integrated heats of injection, corrected for the heat of dilution, with the solid line corresponding to the best fit of the data using Origin™ software. The best fit corresponded to a model with one type of sites. […] The calorimetric titration was performed using the VP-ITC instrument from MicroCal Inc. (Northampton, Mass.) as previously described (Schaeffer et al., 2002) with the following modifications. PDK1 and compound 1 were prepared in 50 mM Tris-HCl (pH 7.5), 175 mM NaCl, 1 mM DTT and 3% DMSO. Titration was performed by 30 successive injections (10 μl) of compound 1 (0.9 mM) into a 1.41 ml reaction cell containing PDK1 50-360 ([…]). Raw calorimetric data were corrected for the heat of dilution, and analyzed using the program Origin™ provided by the manufacturer. Binding stoichiometry, enthalpy and equilibrium dissociation constants were determined by fitting corrected data to a model with a single binding site.

[3] = system: GST-S6K11-365; test: Surface plasmon resonance, S6K1 binding to tail peptides; parameters: species or system rat; conditions: K144N versus wt
Experimental: FIG. 13. The tail phosphate synergistically enhances the ability of the HM phosphate to activate S6K, dependent on the tail phosphate-binding site. (A) The kinase activity of purified kinase domain of S6K1 (S6K11-364), pre-phosphorylated by PDK1 in the activation loop, was determined in the presence of increasing concentrations of synthetic S6K1 tail peptide (residues 366-395) that was either non-phosphorylated (S371/T389), phosphorylated at Ser371 (pS371/T389) or Thr389 (5371/pT389) or phosphorylated at both sites (pS371/pT389). (B) The kinase activity of S6K11-364 and S6K11-364K144N, either pre-phosphorylated or not by PDK1, was determined in the absence or presence of 90 μM S371/pT389 or pS371/pT389. (C) pS371/pT389 S6K1 tail peptide was biotinylated and used to coat streptavidin Sensor Chips. The chips were thereafter analyzed for binding to purified GST-S6K11-365 or GST-56K11-365K144N. (A-C) Experiments were repeated at least 3 times and activity data (expressed as percent) are means±SD.
Sixty 146 cm^2 dishes with COST cells were co-transfected with pEBG-2T-S6K1-365 and pCMV5-myc-PDK1 (ratio 3:1) using calcium phosphate precipitation or with pEBG-2T-PKCζ and pCMV5-myc-PDK1 (ratio 3:1) using Fugene HD according to the manufacturers Instructions. Two days after transfection, the cells were harvested in lysis buffer as described above. […]

Molecule	stabilization of PDK1 to thermal denaturation (in words) [1]	N (binding stoichiometry) [2]	TΔS [2]	ΔH [2]	Kd ([2]; one type of sites, pH 7.5, 3% DMSO)	decrease of binding of S6K11-365 to peptide by the K144N mutation [3]
O=C(O)CSC(CC(=O)c1ccc(Cl)cc1)c1ccccc1 (stereo not drawn) [Compound 1]	did not stabilize	1.0 ± 0.1	4.3 ± 0.2 kcal/mol	−2.1+0.1 kcal·mol^−1	18 µM	
S371/pT389: synthetic S6K1 tail peptide (residues 366-395) phosphorylated in the HM						no effect

Reference: patent publication US20110152166A1, “METHOD OF MODULATION OF PROTEIN PHOSPHORYLATION-DEPENDENT CONFORMATIONAL TRANSITIONS WITH LOW MOLECULAR WEIGHT COMPOUNDS” (priority 2006, published 2011)
